From ChEMBL document CHEMBL5532711, “Peniapyrones A-I, Cytotoxic Tricyclic-Fused α-Pyrone Derivatives from an Endophytic Penicillium brefeldianum F4a” (J Nat Prod, 2024)

Legend:
Type in all cases: functional, cell-based
[1] = tested on: MCF7; experiment: Cytotoxicity against human MCF7 cells assessed as inhibition of cell growth
[2] = tested on: ASPC1; experiment: Cytotoxicity against human ASPC1 cells harboring KRAS G12D mutant assessed as inhibition of cell growth
[3] = tested on: SNU-449; experiment: Cytotoxicity against human SNU-449 cells assessed as inhibition of cell growth

Compound | IC50 [1] [µM] | IC50 [2] [µM] | IC50 [3] [µM]
Cc1cc2c(c(=O)o1)[C@@]1(C)CC(=O)C[C@H]1O2 (racemic) | 9.9 | 2.9 | > 10
Cc1cc2c(c(=O)o1)[C@@]1(C)[C@H](CO)[C@@H](O)C[C@H]1O2 | 5.5 | > 10 | 8.8
Cc1cc2c(c(=O)o1)[C@]1(C)C=CC(=O)[C@@H]1[C@H](OC[C@H]1C(=O)CC[C@@H]1C)O2 | > 10 | > 10 | > 10
Cc1cc2c(c(=O)o1)[C@@]1(C)C=CC(=O)[C@H]1[C@@H](OC[C@H]1C(=O)CC[C@@H]1C)O2 | 0.8 | 9.4 | 1.2
Cc1nc(Nc2ncc(C(=O)Nc3c(C)cccc3Cl)s2)cc(N2CCN(CCO)CC2)n1 [DASATINIB ANHYDROUS] | > 10 | 3.3 | –
CCO[C@@H]1Oc2cc(C)oc(=O)c2[C@]2(C)C=CC(=O)[C@H]12 | 0.7 | 2.2 | 1.4
Cc1cc2c(c(=O)o1)[C@]1(C)C=CC(=O)[C@@H]1[C@H](O)O2 | 5.3 | 1.7 | 5.9
Nc1ccn([C@@H]2O[C@H](CO)[C@@H](O)C2(F)F)c(=O)n1 [GEMCITABINE] | – | 0.5 | > 10
C=C1[C@@H](O)C[C@H]2Oc3cc(C)oc(=O)c3[C@@]12C | 0.2 | 1.7 | 2.7
CO[C@@H]1Oc2cc(C)oc(=O)c2[C@]2(C)C=CC(=O)[C@H]12 | > 10 | > 10 | > 10
Cc1cc2c(c(=O)o1)[C@@]1(C)C[C@H](O)C[C@H]1O2 | 4.6 | 1.5 | > 10
